Source: patent publication EP3294317B1, “ENHANCED ANTIBIOTIC COMPOSITION” (Universitat Autònoma de Barcelona, priority 2015, dated 2016)

Tests used:
[1] = test system: Escherichia coli ATCC 9637; experiment: Colistin broth microdilution MIC with potentiator compounds (Example 1); assay type: cell-based; settings: E. coli ATCC 9637; colistin without potentiator
S. maltophilia K279a = experiment: Colistin broth microdilution MIC with compound of formula I prepared in methanol or DMSO (Example 6); assay type: cell-based, Stenotrophomonas maltophilia; settings: microdilution test with MHB, colistin without potentiator
Protocol: (§1) The potentiator effect of the compound of the invention in a new formulation was tested by using colistin sulphate as antibiotic in combination with the enhancer compound of formula I in front of resistant clinical isolates. […]
(§2) Tests were performed to determine the potentiator effect of the compound of the invention with two colistin resistant S. maltophilia strains as shown in Table 9. S. maltophilia K279a is a reference clinical strain. The origin of clinical strain OC323 together with K279a has been described previously (Huedo et al., Two Different rpf Clusters Distributed among a Population of Stenotrophomonas maltophilia Clinical Strains Display Differential Diffusible Signal Factor Production and Virulence Regulation, J. Bacteriol., 2014, 196, 2431-2442).
(§3) Selected compound of formula I was first dissolved in 100% of Methanol (HPLC Gradient Grade CHROMASOLV. Sigma, 34885-1L-R) to 10 mM. The compound was fairly soluble in methanol up to 10 mM and required vigorous vortex.
(§4) […] MICs were determined as described in the Example 1.
(§5) Strains colistin minimal inhibitory concentration (MIC), expressed in µg/mL, and the fold increase in bacterial susceptibility to colistin when combined with the potentiator compound previously dissolved in methanol ([…]) are shown in Table 9: TABLE 9

S. maltophilia OC323 = experiment: as above; assay type: cell-based, Stenotrophomonas maltophilia; settings: microdilution test with MHB, colistin without potentiator
Protocol: as §1, §2, §3, §4, §5

[2] = test system: Stenotrophomonas maltophilia ATCC 13637; experiment: Colistin broth microdilution MIC with potentiator compounds (Example 1); assay type: cell-based; settings: S. maltophilia ATCC 13637; colistin without potentiator
[3] = test system: Escherichia coli ATCC 25922; experiment: as above; assay type: cell-based; settings: E. coli ATCC 25922; colistin without potentiator
[4] = test system: Pseudomonas aeruginosa ATCC 27853; experiment: as above; assay type: cell-based; settings: P. aeruginosa ATCC 27853; colistin without potentiator
[5] = test system: Pseudomonas aeruginosa PAO1; experiment: as above; assay type: cell-based; settings: P. aeruginosa PAO1; colistin without potentiator
S. maltophilia D457 = experiment: Colistin broth microdilution MIC with potentiator compounds, resistant clinical isolates (Example 3); assay type: cell-based, Stenotrophomonas maltophilia; settings: colistin without potentiator
Protocol: (§6) The potentiator effect of the compound of the invention and other compounds disclosed herein was tested using colistin sulfate as antibiotic and in combination with the enhancer compounds in front of resistant clinical isolates.
(§7) Tests were performed to determine the potentiator effect of the compound of the invention and other compounds disclosed herein with multidrug-resistant S. maltophilia and A. baumannii clinical strains as shown in Table 5: TABLE 5
(§8) For this experiment the potentiator compound was added to a colistin broth microdilution assay at a final concentration of 0.1mM. MICs were determined as described in the Example 1.
(§9) Colistin minimal inhibitory concentration (MIC), expressed in µg/mL, and the fold increase in bacterial susceptibility to colistin when combined with the potentiator compound (expressed as MIC in the presence of 1.0% DMSO / MIC in the presence of 0.1 mM of each potentiator compound and 1.0% DMSO) are shown in Table 6: […]

S. maltophilia 53149 = experiment: as above; assay type: cell-based, Stenotrophomonas maltophilia; settings: colistin without potentiator
Protocol: as §6, §7, §8, §9

S. maltophilia 257 = experiment: as above; assay type: cell-based, Stenotrophomonas maltophilia; settings: colistin without potentiator
Protocol: as §6, §7, §8, §9

S. maltophilia M30 = experiment: as above; assay type: cell-based, Stenotrophomonas maltophilia; settings: colistin without potentiator
Protocol: as §6, §7, §8, §9

S. maltophilia 197 = experiment: as above; assay type: cell-based, Stenotrophomonas maltophilia; settings: colistin without potentiator
Protocol: as §6, §7, §8, §9

[6] = test system: Acinetobacter baumannii ATCC 15308; experiment: Colistin broth microdilution MIC with potentiator compounds (Example 1); assay type: cell-based; settings: A. baumannii ATCC 15308; colistin without potentiator
[7] = test system: Salmonella enterica subsp. enterica ATCC 14028; experiment: as above; assay type: cell-based; settings: S. enterica ATCC 14028; colistin without potentiator
[8] = test system: Enterobacter aerogenes ATCC 13048; experiment: as above; assay type: cell-based; settings: E. aerogenes ATCC 13048; colistin without potentiator
A. baumannii 6963 = experiment: Colistin broth microdilution MIC with potentiator compounds, resistant clinical isolates (Example 3); assay type: cell-based, Acinetobacter baumannii; settings: colistin without potentiator
Protocol: as §6, §7, §8, §9

A. baumannii 6799 = experiment: as above; assay type: cell-based, Acinetobacter baumannii; settings: colistin without potentiator
Protocol: as §6, §7, §8, §9

colistin [reference compound]
Colistin MIC [1]: 0.5 µg/mL
MIC to colistin (S. maltophilia K279a): S. maltophilia K279a (16 µg/mL)
MIC to colistin (S. maltophilia OC323): S. maltophilia OC323 (32 µg/mL)
Colistin MIC [2]: 8 µg/mL
Colistin MIC [3]: 1 µg/mL
Colistin MIC [4]: 0.5 µg/mL
Colistin MIC [5]: 1 µg/mL
Colistin MIC (S. maltophilia D457): 32 µg/mL
Colistin MIC (S. maltophilia 53149): 32 µg/mL
Colistin MIC (S. maltophilia 257): 64 µg/mL
Colistin MIC (S. maltophilia M30): 32 µg/mL
Colistin MIC (S. maltophilia 197): 32 µg/mL
Colistin MIC [6]: 0.5 µg/mL
Colistin MIC [7]: 2 µg/mL
Colistin MIC [8]: 1 µg/mL
Colistin MIC (A. baumannii 6963): 0.125 µg/mL
Colistin MIC (A. baumannii 6799): 0.125 µg/mL
